Test results from patent US10538475B2, “Amphiphilic cyclobutenes and cylobutanes” (priority 2012, dated 2020).
Where two headings read alike, the source gives them in different places.

Legend:
M. smeg (mc2155) [1] = assay: MIC by 96-well microplate twofold dilution, M. smeg; format: cell-based; settings: for MIC: M. smeg mc2155, minimal media, 3-4 day; for fold differences between MICs for M. smeg and M. tb: M. smeg vs M. tb
M. tb (CDC1551) = assay: MIC by 96-well microplate twofold dilution, M. tb CDC1551; format: cell-based, Mycobacterium tuberculosis; settings: minimal media, 5-7 weeks
M. tb (H37Rv) = assay: MIC by 96-well microplate twofold dilution, M. tb H37Rv; format: cell-based, Mycobacterium tuberculosis; settings: minimal media, 5-7 weeks
M. smeg (mc2155) [2] = settings: M. tb vs M. smeg; cited from earlier work
RAW 264.7 macrophages = settings: cited from earlier work
[3] = 1D 1H NMR aqueous stability and concentration dependent micelle formation; format: physicochemical; settings: 100 μM, 500 μM, 750 μM, and 1000 μM; FIG. 2
Method: One-dimensional (1D)^1H-NMR spectroscopy was used to verify the chemical purity, aqueous stability, and concentration dependent micelle formation of eleven fatty acid analogs. Each compound was dissolved in deuterated dimethyl sulfoxide (DMSO-d6) to obtain a stock concentration of 20 mM. Four different concentrations were prepared from the stock solutions for NMR analysis: 1.00 mM, 750 μM, 500 μM, 100 μM. All NMR samples consisted of 600 μL of a deuterated 50 mM potassium phosphate buffer at pH 7.2 with 50 μM of 3 (trimethylsilyl) propionic-2,2,3,3-d4 acid sodium salt (TMSP). Each 600 μL NMR sample contains 30 μL (5%) of DMSO-d6 and was transferred to a 5 mm NMR tube for analysis.
A Bruker Avance DRX 500-MHz spectrometer equipped with a 5 mm triple-resonance cryoprobe (^1H, ^13C, ^15N) with a z-axis gradient was utilized for all 1D ^1H NMR experiments. Acquisition of NMR spectra was automated using a BACS-120 sample changer and Icon NMR software. All spectra were acquired at 298.15 K with 16 dummy scans, 64 scans, 32K data points, a spectral width of 5482.46 Hz, and a relaxation delay of 1.5 s. The NMR spectra were processed and analyzed using ACD/1D NMR Manager (Advanced Chemistry Development). The resulting 1D ^1H NMR spectra were visually inspected for evidence of micelle formation (peak broadening), or chemical instability/impurities (additional peaks). […]

[4] = highest concentration tested 1024 μg/ml
[5] = highest concentration tested 256 μg/ml
[6] = highest concentration tested 1024 μg/ml, read-out: MIC
[7] = Mycobacterium tuberculosis, highest concentration tested 256 μg/ml, read-out: MIC
[8] = Mycobacterium tuberculosis, H37RV, highest concentration tested 256 μg/ml, read-out: MIC

Compound	MIC (M. smeg (mc2155) [1]; [4])	MIC (M. smeg (mc2155) [1]; read-out: MIC)	MIC (M. tb (CDC1551); [5])	MIC (M. tb (CDC1551); read-out: MIC)	MIC (M. tb (H37Rv); [5])	MIC (M. tb (H37Rv); read-out: MIC)	fold differences between MICs for M. smeg and M. tb (M. smeg (mc2155) [1])	further results
2-(Octanoic acid, 8-yl) 3-octylcyclobutanone and 3-(octanoic acid, 8-yl) 2-octylcyclobutanone [Compound 3]	64 mg/L	197 µM	64 mg/L	197 µM	32 µg/mL	99 µM		MIC (M. smeg (mc2155) [1]): ~313 µM
N[C@@H]1CONC1=O [DCS, D-cycloserine, reference compound]	75 mg/L	313 µM	12.5 mg/L	122 µM	12.5 µg/mL	122 µM		
NNC(=O)c1ccncc1 [Isoniazid]								fold more potent inhibition of M. tb compared with M. smeg (M. smeg (mc2155) [2]): 100 fold
O=C(O)CCCCCCCC1CC(=O)C1 [Compound 10, 3-(Octanoic acid, 8-yl)cyclobutanone]	128 mg/L	603 µM	128 mg/L	603 µM	256 µg/mL			MIC (M. tb (H37Rv)): 1,206 μM
O=C(O)CCCCCCCC1CC(O)C1 (stereo not shown) [Compound 11, 3-(Octanoic acid)cyclobutanol]	64 mg/L	302 µM	64 mg/L	299 µM	128 µg/mL	597 µM		MIC (M. smeg (mc2155) [1]): ~313 µM
2-Chloro-4-(octanoic acid, 8-yl) 3-octylcyclobutanone-; 2-Chloro-3-(octanoic acid, 8-yl) 4-octylcyclobutanone [Compound 5]	256 mg/L	713 µM	256 mg/L	713 µM	16 µg/mL	45 µM		
2-(Octanoic acid, 8-yl) 3-octylcyclobutanol and 3-(Octanoic acid, 8-yl) 2-octylcyclobutanol [Compound 4]	256 mg/L	784 µM	8 mg/L		2 µg/mL		five to ten	
CCCCCCCCCC(=O)O [Decanoic acid (DA), Decanoic acid, reference compound]		752 µM						MIC (M. smeg (mc2155) [1]; [6]): 128 mg/L; MIC (M. tb (CDC1551); [7]): 32 mg/L; MIC (M. tb (CDC1551); Mycobacterium tuberculosis, read-out: MIC): 188 µM; MIC (M. tb (H37Rv); [8]): 32 µg/mL; MIC (M. tb (H37Rv); Mycobacterium tuberculosis, H37RV, read-out: MIC): 188 µM
CCCCCCCC/C=C\CCCCCCCC(=O)O [oleate, oleic acid]								concentrations displaying some toxicity to this cell line (RAW 264.7 macrophages): ≥ 200 µM
CCCCCCCC[C@H]1CC[C@H]1CCCCCCCC(=O)O (relative stereo) [Compound 2, cis-9,10-Ethanooctadecanoic acid]	64 mg/L	206 µM	8 mg/L		16 µg/mL	52 µM	five to ten	MIC (M. smeg (mc2155) [1]): ~313 µM
O=C(O)CCCCCCCC1C=CC1 (stereo not shown) [Compound 8, 8-(2-Cyclobuten-1-yl)-octanoic acid]		326 µM					five to ten	MIC (M. smeg (mc2155) [1]; [6]): 64 mg/L; MIC (M. tb (CDC1551); [7]): 4 mg/L; MIC (M. tb (H37Rv); [8]): 4 µg/mL; micelle formation (peak broadening relative to TMSP) [3]: No micelle formation
CCCCCCCCC1=C(CCCCCCCC(=O)O)CC1 [Compound 6, 1-(Octanoic acid, 8-yl)-2-octylcyclobutene]	256 mg/L	830 µM	128 mg/L	415 µM	16 µg/mL	52 µM	five to ten	
O=C(O)CCCCCCCC1CCC1 [Compound 9, 8-Cyclobutyloctanoic acid]		645 µM					five to ten	MIC (M. smeg (mc2155) [1]; [6]): 128 mg/L; MIC (M. tb (CDC1551); [7]): 4 mg/L; MIC (M. tb (H37Rv); [8]): 4 µg/mL
